{"source": "paper PMC8244912", "about": "“An oxytocin/vasopressin-related neuropeptide modulates social foraging behavior in the clonal raider ant” (PLoS Biology, 2021)", "key": {"[1]": {"tested_on": "Ooceraea biroi ants", "assay": "Pharmacological immersion, age- and brood-controlled colonies: distance traveled (automated tracking)", "type": "in vivo", "conditions": "for foraging activity / distance traveled vs control peptide: immersion in 1 mM, 5 h, n = 20 ants", "text": "Mature O. biroi inotocin peptide (CLITNCPRG) was synthesized and cyclized at The Rockefeller University Proteomics Resource Center, along with a scrambled version of the peptide (NRPCGLTCI) as a negative control with identical amino acid composition.\nFor the full experiment (Fig 3), we set up 20 experimental colonies of line B ants that were color painted as previously described. Each colony consisted of 16 ants in an airtight Petri dish with 5-cm diameter. Eight ants in each colony were 3 weeks old, and 8 ants in each colony were 20 weeks old. We added ten 3- to 4-day-old larvae to each of 10 colonies and 10 white (young) pupae to each of the remaining 10 colonies. Brood items often die soon after introduction to a colony, so we added 2 extra brood items per colony to ensure there were 8 alive at the start of the experiment. After the ants had settled for 3 days, we adjusted the number of brood items to 8 per colony, after which we performed the pharmacological treatments. The rationale of having a 1:2 larvae-to-workers ratio in this experiment was to assess the possible effect of increased inotocin levels on worker behavior without saturating the brood signal, as ant larvae regulate worker foraging behavior in a dose-dependent manner.\nOn the day of the experiment, colonies were not fed. To avoid disturbance to the colony as much as possible, half the colony was left untreated, and half was treated. The treatments consisted of immersing the ants in 1 mM solution of freshly dissolved inotocin or control peptide diluted in water and kept on ice. The immersion took place in 1.5-ml Eppendorf tubes that were gently tapped against the bench top for 7 consecutive minutes, after which the liquid was removed using a 1.5-ml transfer pipette. The remaining liquid was removed with a Kimwipe, and ants were transferred to their source colony. In each colony, we treated 2 ants per age category with inotocin and 2 ants per age category with the control peptide. Ants were allowed to recover for 1 hour after the treatment before the start of the video recordings.\nVideos were recorded for 5 hours at 5 frames per second using Logitech C910 USB cameras. Individual ants were tracked using anTraX [85]. In short, ants were segmented using a background subtraction and fixed threshold procedure. Blobs in consecutive frames were threaded into sequences using the Horn–Schunk optical flow method and then classified as single ants or multiple ants based on blob size and linkage criteria. Single ant blob sequences were classified into their appropriate IDs as detailed in [85]. Ants that were detected as single blobs were deemed “active,” and their location was recorded (Fig 3B). The activity level of an ant was defined as the total distance traveled, and an activity time course was created for each ant by summing its activity in time bins of 15 minutes for the entire duration of the experiment. All ants in a colony were tracked. The activity across ants from a given condition from all experimental colonies was averaged in each time bin. The resulting curves were fitted with first- or second-order polynomials using nonlinear regression (least squares fit). The fitted curves were compared using extra sum-of-squares F-tests to select for the best fitted model and to compare between fitted curves, and statistical significance thresholds were adjusted for 2 comparisons within experiments using Bonferroni corrections (old inotocin versus old mock and young inotocin versus young mock). […]"}, "[2]": {"tested_on": "O. biroi inotocin receptor ObiroiItr_A", "assay": "Calcium imaging (fura-2), full-length receptor isoform A with G protein 16", "type": "cell-based, Ooceraea biroi", "conditions": "ObiroiItr_A and G protein 16; fura-2, 510 nm, ex 340/380 nm; peptide for 15 s", "protocol": "Experiments were conducted following Garrison J.L., et al 2012 [8] with modifications. Human embryonic kidney 293T cells (HEK293T) were cultured in DMEM and supplemented with 10% FBS at 37 °C in a cell incubator containing 5% CO^2. Cells were grown in 35 mm MatTek glass bottom dishes to a level of 60 – 70% confluency. Cells were transfected with a 1:1 ratio of PCDNA3.3 containing ~ 1μg of itcR cDNA (full-length isoform A or truncated isoform H) (See S1 Fig for isoforms) and pcDNA3-alpha 16 (encoding promiscuous G protein 16) using Lipofectamine 2000. Cells were incubated for 24 h at 37 °C and then transferred to 28 °C for another 16-24 h. For control experiments, empty vector was also transfected. On the day of the experiment, the cells were loaded with […] fura-2/AM (Invitrogen) for 25 min at 37 °C. Inotocin peptide diluted in Ringer’s solution was applied to the cells for 15 s with a peristaltic pump, and fluorescence at 510 nm was monitored (excitation at 340/380 nm) using a MetaFluor calcium imaging system with a Nikon Eclipse TE2000U microscope."}, "[3]": {"biological_target": "O. biroi inotocin receptor (ObiroiItr_A) (Ooceraea biroi, UniProt A0A8F5LPT9)", "sequence (A0A8F5LPT9 entry or part of it)": "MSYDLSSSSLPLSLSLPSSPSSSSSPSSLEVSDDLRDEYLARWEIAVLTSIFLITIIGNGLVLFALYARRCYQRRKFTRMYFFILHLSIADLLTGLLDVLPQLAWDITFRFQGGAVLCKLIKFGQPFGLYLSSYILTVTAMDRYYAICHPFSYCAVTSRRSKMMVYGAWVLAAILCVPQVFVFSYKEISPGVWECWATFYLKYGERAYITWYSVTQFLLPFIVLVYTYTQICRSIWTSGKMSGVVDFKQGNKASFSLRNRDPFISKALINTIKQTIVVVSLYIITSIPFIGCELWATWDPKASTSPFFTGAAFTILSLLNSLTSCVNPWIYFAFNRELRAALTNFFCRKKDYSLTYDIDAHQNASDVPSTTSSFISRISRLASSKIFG", "assay": "Calcium flux, HEK293T cells transfected with full-length inotocin receptor (FLIPR Calcium 4)", "type": "cell-based", "conditions": "for HillSlope / LogEC50: variable slope; for LogEC50: X data log of Molar_Inotocin", "text": "RNA was isolated in TRIzol using the RNeasy (Qiagen, Germantown, Maryland, USA) purification kit with DNAse I (Qiagen) on-column digestion as in [52] from a sample that contained adult ants, larvae, and pupae and reverse-transcribed into cDNA. Full-length cDNAs for the O. biroi inotocin receptor were PCR amplified with primers 5′-[…]-3′ and 5′-[…]-3′, using the Easy-A high fidelity polymerase (Agilent, Santa Clara, California, USA) to generate PCR products with 5′-Kozak consensus sequences and 3′-A overhangs. The inotocin receptor cDNAs were cloned into the pcDNA3.3 TOPO TA cloning vector (Invitrogen, Waltham, Massachusetts, USA) following manufacturer’s guidelines.\nThe full-length inotocin receptor cDNA sequence that was cloned and used for calcium assays is ObiroiItr_A (GenBank MW660838; for protein sequence, see S1 Fig). We also tested splice variant ObiroiItr_H (GenBank MW660845; for protein sequence, see S1 Fig), which lacks TM4-7, for calcium activity.\nHuman embryonic kidney 293T (HEK293T) cells were cultured in DMEM supplemented with 10% FBS at 37°C in a tissue culture incubator with a humidified atmosphere containing 5% CO2. Cells were plated in 10-cm dishes, and, when they reached 60% to 70% confluency, they were transfected with a pcDNA3.3 vector containing approximately 1 ng of inotocin receptor cDNA or an empty vector as a control using Lipofectamine 2000. Cells were transfected directly into poly-D-lysine–coated 384-well plates and incubated for 48 hours at 37°C. Subsequently, cells were incubated with FLIPR Calcium 4 Assay kit dye for 1 hour in the incubator. The fluorescence (excitation, 488 nm; emission, 530 nm) of the wells was recorded using a Flex Station II 384 (Molecular Devices, San Jose, California, USA), […], in sextuplicate (see below for inotocin peptide synthesis). We calculated the EC50 values using Prism (GraphPad Software version 8) nonlinear regression, 4-parameter logistic curve fit. Dose curves were repeated at least 3 times on independently prepared samples and different days."}}, "note": "Entries after “also recorded” stand apart in the source; their conditions may differ. Where a SMILES comes first, the peptide text is derived from it. Bridges are numbered along the chain shown (N, C = ends)."}
{"smiles": "CC[C@H](C)[C@@H]1NC(=O)[C@H](CC(C)C)NC(=O)[C@@H](N)CSSC[C@@H](C(=O)N2CCC[C@H]2C(=O)N[C@@H](CCCNC(=N)N)C(=O)NCC(N)=O)NC(=O)[C@H](CC(N)=O)NC(=O)[C@H]([C@@H](C)O)NC1=O", "note": "[Inotocin] (H-CLITNCPRG-NH2; disulfide 1-6; N-terminus and C-terminus assumed)", "values": [{"measurement": "foraging activity / distance traveled vs control peptide", "setting": "[1]; old ants, larvae present, p < 0.0002, Bonferroni corrected", "result": "forage more than old ants treated with a control peptide; also recorded: displayed increased foraging activity in the presence of larvae; also recorded: had higher average distance traveled than ants under any other experimental condition"}, {"measurement": "foraging activity / distance traveled vs control peptide", "setting": "[1]; old ants, pupae present, p = 0.998, p > 0.99, Bonferroni corrected", "result": "no difference in foraging activity was found; also recorded: no effect of inotocin treatment was observed"}, {"measurement": "tendency to leave the nest", "setting": "[1]; overall statement, contingent on age and social context", "result": "increases the tendency of ants to leave the nest"}, {"measurement": "foraging activity / distance traveled vs control peptide", "setting": "[1]; young ants, larvae present, p = 0.106, p = 0.109, Bonferroni corrected", "result": "No difference in foraging activity was detected; also recorded: no behavioral difference"}, {"measurement": "foraging activity / distance traveled vs control peptide", "setting": "[1]; young ants, pupae present, p < 0.0002, Bonferroni corrected", "result": "foraged more when treated with inotocin; also recorded: slightly increased their activity; also recorded: increased their average distance traveled compared to ants under any other experimental condition"}, {"measurement": "calcium signal", "setting": "[2]", "result": "Calcium signal is detected"}, {"measurement": "HillSlope", "setting": "[3]; Fig 1C data, Experiment 33015, SE 0.01132, 95% CI 0.2802 to 0.3251", "result": 0.3027}, {"measurement": "LogEC50", "setting": "[3]; Fig 1C data, Experiment 33015, SE 0.05558, 95% CI -11.24 to -11.02", "result": -11.13}, {"measurement": "calcium response", "setting": "[3]; HEK293T cells expressing full-length itcR", "result": "responds in a dose-dependent manner to inotocin; also recorded: responded with calcium signals"}, {"measurement": "HillSlope", "setting": "[3]; S4A Fig, 032515_plate 2, SE 0.02063, 95% CI 0.2625 to 0.3443", "result": 0.3034}, {"measurement": "LogEC50", "setting": "[3]; S4A Fig, 032515_plate 2, SE 0.1002, 95% CI -11.47 to -11.07", "result": -11.27}, {"measurement": "half-maximal effective concentration (EC50), in words", "setting": "[3]; cells transfected with the inotocin receptor, calcium signals", "result": "picomolar"}]}
